According to US4302540A, “Process of producing optically active cephalosporin analogs by enzyme selective deacylation” (Kyowa Hakko Kogyo Co., Ltd., priority 1979, dated 1981):
≈ marks a conversion by molar mass, not a printed value. Where two headings read alike, the source gives them in different places.

Experiments:
Experiment in all cases: Antimicrobial activity, Heart Infusion Agar Dilution Method (pH 7.2)
Type in all cases: cell-based
Proteus mirabilis 1287 = tested on: Proteus mirabilis 1287
[1] = tested on: Escherichia coli GN2411-5
Excerpt: (§1) Antimicrobial activities of the compound obtained in Reference Example 9 are as follows. Heart Infusion Agar Dilution Method (pH 7.2) is used.

Serratia marcescens T-55 = details: T55
Excerpt: as §1

Pseudomonas putida 264 = tested on: Pseudomonas putida 264
Excerpt: as §1

[2] = tested on: Staphylococcus aureus Smith
Excerpt: as §1

[3] = tested on: Staphylococcus epidermidis
Excerpt: as §1

[4] = tested on: Pseudomonas aeruginosa 145
Excerpt: as §1

Proteus vulgaris 6897 = tested on: Proteus vulgaris 6897
Excerpt: as §1

Proteus morganii KY 4298 = tested on: Proteus morganii KY 4298
Excerpt: as §1

Proteus rettgeri KY 4289 = details: Providencia rettgeri, KY4289
Excerpt: as §1

Escherichia coli NIHJC-2 = details: NIHJC2
[5] = tested on: Klebsiella pneumoniae Y-60; details: Y60
Escherichia coli Juhl = tested on: Escherichia coli Juhl
[6] = tested on: Klebsiella pneumoniae 8045
Serratia marcescens T-26 = tested on: Serratia marcescens T-26
[7] = tested on: Pseudomonas aeruginosa #1
Excerpt: as §1

[8] = tested on: Staphylococcus aureus 209-P
Excerpt: as §1

[9] = Morganella morganii, KY4298, read-out: MIC

MIC (Proteus mirabilis 1287)	MIC [1]	MIC (Serratia marcescens T-55)	MIC (Pseudomonas putida 264; read-out: MIC)	MIC [2]	MIC ([3]; read-out: MIC)	MIC ([4]; read-out: MIC)	MIC (Proteus vulgaris 6897)	MIC (Proteus morganii KY 4298; [9])	MIC (Proteus rettgeri KY 4289)	MIC (Escherichia coli NIHJC-2)	MIC [5]	MIC (Escherichia coli Juhl)	MIC [6]	SMILES	other results
0.1 mg/L (≈ 0.262 µM)	0.02 mg/L (≈ 0.0524 µM)	0.02 mg/L (≈ 0.0524 µM)	0.02 mg/L (≈ 0.0524 µM)	25 mg/L (≈ 65.6 µM)	50 mg/L (≈ 131 µM)	12.5 mg/L (≈ 32.8 µM)	0.1 mg/L (≈ 0.262 µM)	0.05 mg/L (≈ 0.131 µM)	< 0.01 mg/L	0.05 mg/L (≈ 0.131 µM)	0.02 mg/L (≈ 0.0524 µM)	0.05 mg/L (≈ 0.131 µM)	0.02 mg/L (≈ 0.0524 µM)	CO/N=C(\C(=O)N[C@@H]1C(=O)N2C(C(=O)O)=C[C@@H](O)C[C@H]12)c1csc(N)n1 (relative stereo) [B, (±)-cis-7β-[2-(2-amino-4-thiazolyl)-2-syn-methoxyiminoacetamido]-4α-hydroxy-1-azabicyclo[4,2,0]oct-2-en-8-on-2-carboxylic acid]	–
–	–	–	–	–	–	–	–	–	–	–	–	–	–	N[C@@H](C(=O)NC1C(=O)N2C(C(=O)O)=CC(O)CC12)c1ccccc1 (stereo in doubt) [C, cis-7β-[(R)-2-phenylglycinamido]-4α-hydroxy-1-azabicyclo[4,2,0]oct-2-en-8-on-2-carboxylic acid]	MIC (Serratia marcescens T-26): 100 mg/L (≈ 302 µM); MIC [7]: > 100 mg/L; MIC (Pseudomonas putida 264): 12.5 mg/L (≈ 37.7 µM); MIC [3]: 12.5 mg/L (≈ 37.7 µM); MIC [4]: > 100 mg/L; MIC (Proteus morganii KY 4298): 12.5 mg/L (≈ 37.7 µM)
0.05 mg/L (≈ 0.131 µM)	≤ 0.01 mg/L	0.05 mg/L (≈ 0.131 µM)	0.02 mg/L (≈ 0.0524 µM)	12.5 mg/L (≈ 32.8 µM)	25 mg/L (≈ 65.6 µM)	6.25 mg/L (≈ 16.4 µM)	≤ 0.01 mg/L	≤ 0.01 mg/L	≤ 0.01 mg/L	0.02 mg/L (≈ 0.0524 µM)	≤ 0.01 mg/L	≤ 0.01 mg/L	≤ 0.01 mg/L	CO/N=C(\C(=O)N[C@@H]1C(=O)N2C(C(=O)O)=C[C@@H](O)C[C@H]12)c1csc(N)n1 [A, (4S,6R,7S)-7-[2-(2-amino-4-thiazolyl)-2-syn-methoxyiminoacetamido]-4-hydroxy-1-azabicyclo[4,2,0]oct-2-en-8-on-2-carboxylic acid]	–
12.5 mg/L (≈ 27.5 µM)	0.78 mg/L (≈ 1.72 µM)	> 100 mg/L	> 100 mg/L	0.78 mg/L (≈ 1.72 µM)	0.78 mg/L (≈ 1.72 µM)	> 100 mg/L	25 mg/L (≈ 55 µM)	> 100 mg/L	25 mg/L (≈ 55 µM)	–	3.12 mg/L (≈ 6.86 µM)	–	–	Cc1nnc(SCC2=C(C(=O)O)N3C(=O)[C@@H](NC(=O)Cn4cnnn4)[C@H]3SC2)s1 [Cefazolin, reference compound]	MIC (Serratia marcescens T-26; T26, read-out: MIC): > 100 mg/L; MIC [8]: 0.02 mg/L (≈ 0.044 µM); MIC ([7]; read-out: MIC): > 100 mg/L
